Assay results taken from patent US20260078120A1, “SUBSTITUTED PYRIDOPYRIMIDINONES” (MIRATI THERAPEUTICS, INC., priority 2022, published 2026).
Read-outs that look alike come from different tables or passages of the source.

Experiments:
[1] = system: SKBR3 (PI3Kα wild type) cells; experiment: CellTiter-Glo 2.0 luminescent cell viability assay, 72 hours, SKBR3 cells; format: cell-based; conditions: Homo sapiens, SK-BR-3, 72 h, SKBR3 (PI3Kα wild type) cells, CellTiter-Glo, approximately 72 hours; read-out: SKBR3 (WT) Viability IC50
Summary of the method: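 Viability measured via CTG luminescence following roughly 72 hours of compound exposure at 37° C. Dosing used a 10 um starting concentration diluted 1:4 over 10 points; percent-of-vehicle data fitted with a variable-slope four-parameter model for IC50.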

[2] = system: T47D (PI3Kα H1047R mutant) cells; experiment: CellTiter-Glo 2.0 luminescent cell viability assay, 72 hours, T47D cells; format: cell-based; conditions: T47D (PI3Kα H1047R mutant) cells, CellTiter-Glo, approximately 72 hours, read-out: T47D (H1047R mutant) Viability IC50
Summary of the method: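 Viability was measured by CellTiter-Glo 2.0 luminescence after approximately 72 h of compound exposure at 37° C. Plating was 1000 cells per well the day before dosing, with ten 1:4 dilutions from a 10 µM top concentration. Values as percent of vehicle were fitted by variable-slope log(inhibitor) regression to give IC50.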

| SMILES | IC50 [1] [µM] | IC50 ([2]; Homo sapiens, T47D, 72 h) [µM] | IC50 [2] [µM] |
| --- | --- | --- | --- |
| Cc1cc([C@@H](C)Nc2ccccc2C(=O)O)c2nc(N3CCc4scnc4C3)c(C#N)c(=O)n2c1 [Example 11-306, (R)-2-((1-(3-cyano-2-(6,7-dihydrothiazolo[4,5-c]pyridin-5(4H)-yl)-7-methyl-4-oxo-4H-pyrido[1,2-a]pyrimidin-9-yl)ethyl)amino)benzoic acid] | > 10 | 0.557 | – |
| Cc1cc([C@@H](C)Nc2cccc(F)c2C(=O)O)c2nc(N3Cc4ccccc4C3)c(C#N)c(=O)n2c1 [Example 11-307, (R)-2-((1-(3-cyano-2-(isoindolin-2-yl)-7-methyl-4-oxo-4H-pyrido[1,2-a]pyrimidin-9-yl)ethyl)amino)-6-fluorobenzoic acid] | > 10 | 0.379 | – |
| Cc1cc([C@@H](C)Nc2ccccc2C(=O)O)c2nc(NCC(C)C)c(C#N)c(=O)n2c1 [Example 11-308, (R)-2-((1-(3-cyano-2-(isobutylamino)-7-methyl-4-oxo-4H-pyrido[1,2-a]pyrimidin-9-yl)ethyl)amino)benzoic acid] | > 10 | 0.121 | – |
| Cc1cc([C@@H](C)Nc2ccccc2C(=O)O)c2nc(NCC(C)C)c(C)c(=O)n2c1 [Example 11-309, (R)-2-((1-(2-(isobutylamino)-3,7-dimethyl-4-oxo-4H-pyrido[1,2-a]pyrimidin-9-yl)ethyl)amino)benzoic acid] | > 10 | 0.313 | – |
| Cc1cc([C@@H](C)Nc2ccc(C#N)cc2C(=O)O)c2nc(N3Cc4ccccc4C3)c(C)c(=O)n2c1 [Example 11-310, (R)-5-cyano-2-((1-(2-(isoindolin-2-yl)-3,7-dimethyl-4-oxo-4H-pyrido[1,2-a]pyrimidin-9-yl)ethyl)amino)benzoic acid] | > 10 | 0.634 | – |
| Cc1cc([C@@H](C)Nc2ccccc2C(=O)O)c2nc(N3CCC(N(C)C)CC3)c(C)c(=O)n2c1 [Example 11-311, (R)-2-((1-(2-(4-(dimethylamino)piperidin-1-yl)-3,7-dimethyl-4-oxo-4H-pyrido[1,2-a]pyrimidin-9-yl)ethyl)amino)benzoic acid] | > 10 | 3.97 | – |
| Cc1cc([C@@H](C)Nc2ccccc2C(=O)O)c2nc(N3CCC(O)CC3)c(C#N)c(=O)n2c1 [Example 11-312, (R)-2-((1-(3-cyano-2-(4-hydroxypiperidin-1-yl)-7-methyl-4-oxo-4H-pyrido[1,2-a]pyrimidin-9-yl)ethyl)amino)benzoic acid] | > 10 | 5.08 | – |
| Cc1cc([C@@H](C)Nc2ccccc2C(=O)O)c2nc(N3CCC(N(C)C)CC3)c(C#N)c(=O)n2c1 [Example 11-313, (R)-2-((1-(3-cyano-2-(4-(dimethylamino)piperidin-1-yl)-7-methyl-4-oxo-4H-pyrido[1,2-a]pyrimidin-9-yl)ethyl)amino)benzoic acid] | > 10 | > 10 | – |
| Cc1cc([C@@H](C)Nc2ccccc2C(=O)O)c2nc(N3CCC(C)CC3)c(C#N)c(=O)n2c1 [Example 11-314, (R)-2-((1-(3-cyano-7-methyl-2-(4-methylpiperidin-1-yl)-4-oxo-4H-pyrido[1,2-a]pyrimidin-9-yl)ethyl)amino)benzoic acid] | > 10 | 0.146 | – |
| Cc1cc(C(=O)NC2CCCCC2C(=O)O)c2nc(N3CCCCC3)c(C#N)c(=O)n2c1 (stereo not drawn) [Example 11-315, 2-(3-cyano-7-methyl-4-oxo-2-(piperidin-1-yl)-4H-pyrido[1,2-a]pyrimidine-9-carboxamido)cyclohexane-1-carboxylic acid] | > 10 | > 10 | – |
| Cc1cc(C(=O)NC2(CC(=O)O)CCC2)c2nc(N3CCCCC3)c(C#N)c(=O)n2c1 [Example 11-316, 2-(1-(3-cyano-7-methyl-4-oxo-2-(piperidin-1-yl)-4H-pyrido[1,2-a]pyrimidine-9-carboxamido)cyclobutyl)acetic acid] | > 10 | > 10 | – |
| Cc1cc([C@@H](C)NC(=O)C2(C(=O)O)CCC2)c2nc(N3CCCCC3)c(C#N)c(=O)n2c1 [Example 11-317, (R)-1-((1-(3-cyano-7-methyl-4-oxo-2-(piperidin-1-yl)-4H-pyrido[1,2-a]pyrimidin-9-yl)ethyl)carbamoyl)cyclobutane-1-carboxylic acid] | > 10 | > 10 | – |
| Cc1cc([C@@H](C)Nc2ccccc2C(=O)O)c2nc(N3CCOCC3)c(C#N)c(=O)n2c1 [Example 11-318, (R)-2-((1-(3-cyano-7-methyl-2-morpholino-4-oxo-4H-pyrido[1,2-a]pyrimidin-9-yl)ethyl)amino)benzoic acid] | > 10 | 0.274 | – |
| Cc1cc([C@@H](C)Nc2ccccc2C(=O)O)c2nc(N3CCCCCC3)c(C#N)c(=O)n2c1 [Example 11-319, (R)-2-((1-(2-(azepan-1-yl)-3-cyano-7-methyl-4-oxo-4H-pyrido[1,2-a]pyrimidin-9-yl)ethyl)amino)benzoic acid] | > 10 | 0.162 | – |
| CCN(CC)c1nc2c([C@@H](C)Nc3ccccc3C(=O)O)cc(C)cn2c(=O)c1C#N [Example 11-320, (R)-2-((1-(3-cyano-2-(diethylamino)-7-methyl-4-oxo-4H-pyrido[1,2-a]pyrimidin-9-yl)ethyl)amino)benzoic acid] | > 10 | 0.539 | – |
| Cc1cc([C@@H](C)Nc2ccccc2C(=O)O)c2nc(N3CC4(COC4)C3)c(C#N)c(=O)n2c1 [Example 11-321, (R)-2-((1-(3-cyano-7-methyl-4-oxo-2-(2-oxa-6-azaspiro[3.3]heptan-6-yl)-4H-pyrido[1,2-a]pyrimidin-9-yl)ethyl)amino)benzoic acid] | > 10 | 2.8 | – |
| Cc1cc([C@@H](C)Nc2ccccc2C(=O)O)c2nc(N3CC4CC(C3)O4)c(C#N)c(=O)n2c1 [Example 11-322, 2-(((1R)-1-(2-(6-oxa-3-azabicyclo[3.1.1]heptan-3-yl)-3-cyano-7-methyl-4-oxo-4H-pyrido[1,2-a]pyrimidin-9-yl)ethyl)amino)benzoic acid] | > 10 | 0.711 | – |
| Cc1cc([C@@H](C)Nc2ccccc2C(=O)O)c2nc(N3CC4(CCC4)C3)c(C#N)c(=O)n2c1 [Example 11-323, (R)-2-((1-(3-cyano-7-methyl-4-oxo-2-(azaspiro[3.3]heptan-2-yl)-4H-pyrido[1,2-a]pyrimidin-9-yl)ethyl)amino)benzoic acid] | > 10 | 0.156 | – |
| Cc1cc([C@@H](C)Nc2ccccc2C(=O)O)c2nc(N3CCCC(O)C3)c(C#N)c(=O)n2c1 (stereo partly drawn) [Example 11-324, 2-(((1R)-1-(3-cyano-2-(3-hydroxypiperidin-1-yl)-7-methyl-4-oxo-4H-pyrido[1,2-a]pyrimidin-9-yl)ethyl)amino)benzoic acid] | > 10 | 3.82 | – |
| Cc1cc([C@@H](C)Nc2cnc(Cl)nc2C(=O)O)c2nc(N3Cc4ccccc4C3)c(C#N)c(=O)n2c1 [Example 11-325, (R)-2-chloro-5-((1-(3-cyano-2-(isoindolin-2-yl)-7-methyl-4-oxo-4H-pyrido[1,2-a]pyrimidin-9-yl)ethyl)amino)pyrimidine-4-carboxylic acid] | > 10 | 3.08 | – |
| C[C@@H](Nc1ccccc1C(=O)O)c1cc(C2CC2)cn2c(=O)c(C#N)c(N3Cc4ccccc4C3)nc12 [Example 11-326, (R)-2-((1-(3-cyano-7-cyclopropyl-2-(isoindolin-2-yl)-4-oxo-4H-pyrido[1,2-a]pyrimidin-9-yl)ethyl)amino)benzoic acid] | 3.96 | 2.58 | – |
| C[C@H](Nc1ccccc1C(=O)O)c1cc(C2CC2)cn2c(=O)c(C#N)c(N3Cc4ccccc4C3)nc12 [Example 11-327, (S)-2-((1-(3-cyano-7-cyclopropyl-2-(isoindolin-2-yl)-4-oxo-4H-pyrido[1,2-a]pyrimidin-9-yl)ethyl)amino)benzoic acid] | 9.93 | 0.143 | – |
| CCc1cc([C@@H](C)Nc2ccccc2C(=O)O)c2nc(N3Cc4ccccc4C3)c(C#N)c(=O)n2c1 [Example 11-328, (R)-2-((1-(3-cyano-7-ethyl-2-(isoindolin-2-yl)-4-oxo-4H-pyrido[1,2-a]pyrimidin-9-yl)ethyl)amino)benzoic acid] | 6.82 | – | 1.91 |
| Cc1cc([C@H](C)OC(=O)c2nc(Cl)ccc2N)c2nc(N3CCCCC3)c(C#N)c(=O)n2c1 [Example 11-329, (S)-1-(3-cyano-7-methyl-4-oxo-2-(piperidin-1-yl)-4H-pyrido[1,2-a]pyrimidin-9-yl)ethyl 3-amino-6-chloropicolinate] | > 10 | 1.1 | – |
| Cc1cc([C@@H](C)OC(=O)c2nc(Cl)ccc2N)c2nc(N3CCCCC3)c(C#N)c(=O)n2c1 [Example 11-330, (R)-1-(3-cyano-7-methyl-4-oxo-2-(piperidin-1-yl)-4H-pyrido[1,2-a]pyrimidin-9-yl)ethyl 3-amino-6-chloropicolinate] | > 10 | > 10 | – |
| Cc1cc([C@@H](C)Nc2ccc(Cl)nc2C(=O)O)c2nc(N3CCCCC3)c(C#N)c(=O)n2c1 [Example 11-331, (R)-6-chloro-3-((1-(3-cyano-7-methyl-4-oxo-2-(piperidin-1-yl)-4H-pyrido[1,2-a]pyrimidin-9-yl)ethyl)amino)picolinic acid] | > 10 | 0.301 | – |
| Cc1cc(C(C)Nc2ccc(Cl)nc2C(=O)O)c2nc(N3CCCCC3)c(C#N)c(=O)n2c1 (stereo not drawn) [Example 11-332, 6-chloro-3-((1-(3-cyano-7-methyl-4-oxo-2-(piperidin-1-yl)-4H-pyrido[1,2-a]pyrimidin-9-yl)ethyl)amino)picolinic acid] | 9.81 | 0.481 | – |
